This note sets out measurements from US20250011299A1, “PYRIDAZINYL AMINO DERIVATIVES AS ALK5 INHIBITORS” (CHIESI FARMACEUTICI S.P.A., priority 2021, published 2025).

This assay concerns the target T1, human ALK5 (Homo sapiens, UniProt P36897).
T1 construct: human ALK5 (recombinant TGF β1 N-term GST-tagged, 80-end); GST (N); purchased
T1 sequence (P36897 80-503 limits assumed): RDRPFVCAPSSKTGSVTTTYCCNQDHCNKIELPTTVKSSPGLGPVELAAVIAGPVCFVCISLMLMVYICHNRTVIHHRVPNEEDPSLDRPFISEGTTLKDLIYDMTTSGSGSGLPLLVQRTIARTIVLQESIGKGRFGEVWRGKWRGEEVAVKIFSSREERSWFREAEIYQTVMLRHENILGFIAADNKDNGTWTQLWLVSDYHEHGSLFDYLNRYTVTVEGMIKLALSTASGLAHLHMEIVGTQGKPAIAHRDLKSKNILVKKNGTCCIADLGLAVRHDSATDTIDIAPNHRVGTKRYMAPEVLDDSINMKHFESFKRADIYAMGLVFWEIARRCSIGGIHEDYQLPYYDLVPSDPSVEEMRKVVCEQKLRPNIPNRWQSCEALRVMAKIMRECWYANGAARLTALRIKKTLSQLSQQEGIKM
Briefly: ADP-GLO Kinases assay of ALK5 enzymatic activity. In kind it is biochemical. Conditions: purified recombinant human ALK5, TGFβ1 peptide substrate, pIC50 converted to pKi by Cheng-Prusoff, high ATP protocol (15 μM) for very potent compounds, 25° C. The method, boiled down:
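Purified ALK5 preincubated 15 min with compound, then reacted with substrate and ATP; ADP formed read by ADP-Glo luminescence after 120 min or 60 min reaction, all steps at 25° C. 11-point concentration-response; pIC50 converted to pKi via Cheng-Prusoff.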
Consider `CN1CCCN(CC(=O)Nc2cc(Nc3cc(-c4cc(Cl)ccc4F)nnc3SCCO)ccn2)CC1` [Example 27, N-(4-{[6-(5-chloro-2-fluorophenyl)-3-[(2-hydroxyethyl)sulfanyl]pyridazin-4-yl]amino}pyridin-2-yl)-2-(4-methyl-1,4-diazepan-1-yl)acetamide], for which the Ki was at most 0.1 nM.

As for `CN1CCN(CCC(=O)Nc2cc(Nc3cc(-c4cc(Cl)ccc4F)nnc3N(C)C[C@@]3(C)CCOC3=O)ccn2)CC1` (racemic) [Example 127, N-(4-{[6-(5-chloro-2-fluorophenyl)-3-{methyl[(3-methyl-2-oxooxolan-3-yl)methyl]amino}pyridazin-4-yl]amino}pyridin-2-yl)-3-(4-methylpiperazin-1-yl)propanamide], the Ki was at most 0.1 nM.

With `CN1CCN(CCOc2nnc(-c3cc(Cl)ccc3F)cc2Nc2ccnc(N)c2)CC1` [Example 70, N4-[6-(5-chloro-2-fluorophenyl)-3-[2-(4-methylpiperazin-1-yl)ethoxy]pyridazin-4-yl]pyridine-2,4-diamine], the inhibition constant (Ki) is 0.398 to 3.16 nM.

On to `CN1CCN(CCOc2nnc(-c3cc(Cl)ccc3F)cc2Nc2ccnc3[nH]ccc23)CC1` [Example 37, 6-(5-chloro-2-fluorophenyl)-3-[2-(4-methylpiperazin-1-yl)ethoxy]-N-{1H-pyrrolo[2,3-b]pyridin-4-yl}pyridazin-4-amine], for which the Ki is 0.398 to 3.16 nM.

Take `CN1CCN(CCC(=O)Nc2cc(Nc3cc(-c4cc(Cl)ccc4F)nnc3OCc3ccc4c(c3)OC(C)(C)O4)ccn2)CC1` [Example 116, N-(4-{[6-(5-chloro-2-fluorophenyl)-3-[(2,2-dimethyl-2H-1,3-benzodioxol-5-yl)methoxy]pyridazin-4-yl]amino}pyridin-2-yl)-3-(4-methylpiperazin-1-yl)propanamide]: the Ki was 0.126 to 0.316 nM. Under `CN1CCN(CCC(=O)Nc2cc(Nc3cc(-c4cc(Cl)ccc4F)nnc3N(C)CC3CCOC3=O)ccn2)CC1` (stereo not drawn) [Example 108, N-(4-{[6-(5-chloro-2-fluorophenyl)-3-{methyl[(2-oxooxolan-3-yl)methyl]amino}pyridazin-4-yl]amino}pyridin-2-yl)-3-(4-methylpiperazin-1-yl)propanamide] stands at most 0.1 nM. Under `CN1CCN([C@H]2C[C@H](C(=O)Nc3cc(Nc4cc(-c5cc(Cl)ccc5F)nnc4OC4CCOC4)ccn3)C2)CC1` (single isomer, unassigned) [Example 112, N-(4-{[6-(5-chloro-2-fluorophenyl)-3-(oxolan-3-yloxy)pyridazin-4-yl]amino}pyridin-2-yl)-3-(4-methylpiperazin-1-yl)cyclobutane-1-carboxamide] stands at most 0.1 nM; under `CN1CCN(CCC(=O)Nc2cc(Nc3cc(-c4cc(Cl)ccc4F)nnc3OCCO)ccn2)CC1` [Example 1, N-(4-{[6-(5-chloro-2-fluorophenyl)-3-(2-hydroxyethoxy)pyridazin-4-yl]amino}pyridin-2-yl)-3-(4-methylpiperazin-1-yl)propanamide], at most 0.1 nM; under `CN1CC(COc2nnc(-c3cc(Cl)ccc3F)cc2Nc2ccnc(NC(=O)C3CC3)c2)C1` [Example 44, N-(4-{[6-(5-chloro-2-fluorophenyl)-3-[(1-methylazetidin-3-yl)methoxy]pyridazin-4-yl]amino}pyridin-2-yl)cyclopropanecarboxamide], 0.126 to 0.316 nM.

For `CN1CCN(CCC(=O)Nc2cc(Nc3cc(-c4cc(Cl)ccc4F)nnc3N(C)C3CCOC3)ccn2)CC1` (racemic) [Example 105, N-(4-{[6-(5-chloro-2-fluorophenyl)-3-[methyl(oxolan-3-yl)amino]pyridazin-4-yl]amino}pyridin-2-yl)-3-(4-methylpiperazin-1-yl)propanamide], the Ki is at most 0.1 nM. With `CN1CCC(COC(=O)c2cccc(CSc3nnc(-c4cc(Cl)ccc4F)cc3Nc3ccnc4[nH]ccc34)c2)CC1` [Example 206, (1-methylpiperidin-4-yl)methyl 3-({[6-(5-chloro-2-fluorophenyl)-4-({1H-pyrrolo[2,3-b]pyridin-4-yl}amino)pyridazin-3-yl]sulfanyl}methyl)benzoate] the figure was 0.126 to 0.316 nM.

In the case of `COC(=O)c1cc2c(Nc3cc(-c4cc(Cl)ccc4F)nnc3OCCCN(C)C)ccnc2[nH]1` [Example 10, methyl 4-{[6-(5-chloro-2-fluorophenyl)-3-[3-(dimethylamino)propoxy]pyridazin-4-yl]amino}-1H-pyrrolo[2,3-b]pyridine-2-carboxylate], the Ki was 0.398 to 3.16 nM. For the compound `COc1nnc(-c2cc(Cl)ccc2F)cc1Nc1ccnc(NC(=O)CCN2CCN(CC(F)(F)F)CC2)c1` [Example 13, N-(4-{[6-(5-chloro-2-fluorophenyl)-3-methoxypyridazin-4-yl]amino}pyridin-2-yl)-3-[4-(2,2,2-trifluoroethyl)piperazin-1-yl]propanamide], the Ki is at most 0.1 nM. In the case of `O=C(Nc1cc(Nc2cc(-c3cc(Cl)ccc3F)nnc2SCCO)ccn1)C12CC(CN3CCN(C4CC4)CC3)(C1)C2` [Example 183, N-(4-{[6-(5-chloro-2-fluorophenyl)-3-[(2-hydroxyethyl)sulfanyl]pyridazin-4-yl]amino}pyridin-2-yl)-3-[(4-cyclopropylpiperazin-1-yl)methyl]bicyclo[1.1.1]pentane-1-carboxamide], the Ki is 0.126 to 0.316 nM. Take `CSCCCOc1nnc(-c2cc(Cl)ccc2F)cc1Nc1ccnc(NC(=O)CCN2CCN(C)CC2)c1` [Example 4, N-(4-{[6-(5-chloro-2-fluorophenyl)-3-[3-(methylsulfanyl)propoxy]pyridazin-4-yl]amino}pyridin-2-yl)-3-(4-methylpiperazin-1-yl)propanamide]: the Ki is 0.126 to 0.316 nM. In the case of `CN1CCN(CCC(=O)Nc2cc(Nc3cc(-c4cc(Cl)ccc4F)nnc3SC(C)(C)CO)ccn2)CC1` [Example 93, N-(4-{[6-(5-chloro-2-fluorophenyl)-3-[(1-hydroxy-2-methylpropan-2-yl)sulfanyl]pyridazin-4-yl]amino}pyridin-2-yl)-3-(4-methylpiperazin-1-yl)propanamide], the Ki is 0.126 to 0.316 nM. Regarding `CN1CCN(CCC(=O)Nc2cc(Nc3cc(-c4cc(Cl)ccc4F)nnc3OCC3COC(C)(C)O3)ccn2)CC1` (stereo not drawn) [Example 77, N-(4-{[6-(5-chloro-2-fluorophenyl)-3-[(2,2-dimethyl-1,3-dioxolan-4-yl)methoxy]pyridazin-4-yl]amino}pyridin-2-yl)-3-(4-methylpiperazin-1-yl)propanamide], the Ki was at most 0.1 nM.

Turning to `COC(=O)C12CC(COc3nnc(-c4cc(Cl)ccc4F)cc3Nc3ccnc(NC(=O)[C@H]4C[C@@H](N5CCN(C)CC5)C4)c3)(C1)C2` [Example 126, Cis methyl 3-({[6-(5-chloro-2-fluorophenyl)-4-({2-[(1s,3s)-3-(4-methylpiperazin-1-yl)cyclobutaneamido]pyridin-4-yl}amino)pyridazin-3-yl]oxy}methyl)bicyclo[1.1.1]pentane-1-carboxylate], the Ki was at most 0.1 nM.

In the case of `CN1CCN(CCC(=O)Nc2cc(Nc3cc(-c4cc(Cl)ccc4F)nnc3OC[C@H]3C[C@@H](O)C3)ccn2)CC1` [Example 71, Cis N-(4-{[6-(5-chloro-2-fluorophenyl)-3-[(3-hydroxycyclobutyl)methoxy]pyridazin-4-yl]amino}pyridin-2-yl)-3-(4-methylpiperazin-1-yl)propanamide], the Ki is at most 0.1 nM. Under `CN1CCN(CCOc2ccc3c(Nc4cc(-c5cc(Cl)ccc5F)nnc4OCCO)ccnc3c2)CC1` [Example 2, 2-{[6-(5-chloro-2-fluorophenyl)-4-({7-[2-(4-methylpiperazin-1-yl)ethoxy]quinolin-4-yl}amino)pyridazin-3-yl]oxy}ethan-1-ol] stands at most 0.1 nM; under `COC(=O)C12CC(COc3nnc(-c4cc(Cl)ccc4F)cc3Nc3ccnc(NC(=O)CCN4CCN(C)CC4)c3)(C1)C2` [Example 125, methyl 3-({[6-(5-chloro-2-fluorophenyl)-4-({2-[3-(4-methylpiperazin-1-yl)propanamido]pyridin-4-yl}amino)pyridazin-3-yl]oxy}methyl)bicyclo[1.1.1]pentane-1-carboxylate], 0.126 to 0.316 nM; under `CN1CCN(CCC(=O)Nc2cc(Nc3cc(-c4cc(Cl)ccc4F)nnc3OCC(F)F)ccn2)CC1` [Example 52, N-(4-{[6-(5-chloro-2-fluorophenyl)-3-(2,2-difluoroethoxy)pyridazin-4-yl]amino}pyridin-2-yl)-3-(4-methylpiperazin-1-yl)propanamide], 0.126 to 0.316 nM.

Turning to `CN1CCN(CCCC(=O)Nc2cc(Nc3cc(-c4cc(Cl)ccc4F)nnc3SCCO)ccn2)CC1` [Example 23, N-(4-{[6-(5-chloro-2-fluorophenyl)-3-[(2-hydroxyethyl)sulfanyl]pyridazin-4-yl]amino}pyridin-2-yl)-4-(4-methylpiperazin-1-yl)butanamide], the Ki is 0.126 to 0.316 nM.

`CN1CCN(CCC(=O)Nc2cc(Nc3cc(-c4cc(Cl)ccc4F)nnc3N(C)CCC(O)C(F)(F)F)ccn2)CC1` (stereo not drawn) [Example 110, N-(4-{[6-(5-chloro-2-fluorophenyl)-3-[methyl(4,4,4-trifluoro-3-hydroxybutyl)amino]pyridazin-4-yl]amino}pyridin-2-yl)-3-(4-methylpiperazin-1-yl)propanamide]: the inhibitory constant (Ki) was at most 0.1 nM.
